Data published in the NIST ThermoML archive (doi:10.1016/j.jct.2013.05.024).

Assay: excess molar enthalpy (molar enthalpy of mixing); xn = mol fraction of the nth substance listed
Details: 101.3 kPa, Liquid, Isoperibol calorimetry

CCOC(=O)C(=O)OCC [diethyl ethanedioate] + CCCO
excess molar enthalpy [kcal/mol]
Details	288.2 K	298.2 K	313.2 K	328.2 K
x1 = 0.0505	0.106	0.113	0.123	0.135
x1 = 0.1001	0.187	0.202	0.232	0.249
x1 = 0.1509	0.2524	0.2758	0.3152	0.3415
x1 = 0.1998	0.3033	0.3315	0.3776	0.4118
x1 = 0.2491	0.3415	0.3795	0.4328	0.4675
x1 = 0.2986	0.3755	0.4118	0.4696	0.5146
x1 = 0.3478	0.3996	0.4441	0.5043	0.5516
x1 = 0.4003	0.4192	0.4656	0.5284	0.5717
x1 = 0.4482	0.4302	0.4749	0.5382	0.5858
x1 = 0.499	0.4395	0.484	0.5447	0.5906
x1 = 0.5484	0.4371	0.4802	0.5392	0.586
x1 = 0.6007	0.4302	0.4732	0.5249	0.5648
x1 = 0.6509	0.4149	0.4527	0.5041	0.5368
x1 = 0.6986	0.3924	0.4247	0.4708	0.5038
x1 = 0.7487	0.3609	0.3877	0.4295	0.4517
x1 = 0.8015	0.3167	0.3403	0.3671	0.3853
x1 = 0.8509	0.2631	0.281	0.2988	0.3112
x1 = 0.9028	0.192	0.196	0.21	0.217
x1 = 0.9503	0.101	0.108	0.109	0.108

CCOC(=O)C(=O)OCC [diethyl ethanedioate] + CO
excess molar enthalpy [kcal/mol]
Details	288.2 K	298.2 K	313.2 K	328.2 K
x1 = 0.0493	–	0.0523	0.06	0.0674
x1 = 0.0494	0.0464	–	–	–
x1 = 0.1004	–	0.101	0.12	0.139
x1 = 0.1005	0.0887	–	–	–
x1 = 0.1593	–	0.15	0.176	0.204
x1 = 0.2003	–	0.1771	0.2096	0.2407
x1 = 0.2004	0.156	–	–	–
x1 = 0.2505	–	0.207	0.2419	0.2789
x1 = 0.2507	0.1845	–	–	–
x1 = 0.299	–	0.2323	0.2725	0.3126
x1 = 0.2991	0.2072	–	–	–
x1 = 0.3509	–	0.2545	0.2978	0.3406
x1 = 0.3511	0.2259	–	–	–
x1 = 0.4017	–	0.2706	0.316	0.3616
x1 = 0.4019	0.2419	–	–	–
x1 = 0.4494	–	0.2823	0.3284	0.3731
x1 = 0.4496	0.2522	–	–	–
x1 = 0.4973	–	0.2909	0.3387	0.3843
x1 = 0.4975	0.261	–	–	–
x1 = 0.5507	–	0.2942	0.3399	0.3843
x1 = 0.5509	0.2658	–	–	–
x1 = 0.5967	–	0.2935	0.3377	0.3798
x1 = 0.5969	0.2651	–	–	–
x1 = 0.6473	–	0.2856	0.3274	0.3633
x1 = 0.6475	0.2605	–	–	–
x1 = 0.7032	–	0.2694	0.3112	0.3389
x1 = 0.7033	0.2467	–	–	–
x1 = 0.7468	–	0.2588	0.2911	0.3105
x1 = 0.7469	0.2333	–	–	–
x1 = 0.8037	–	0.238	0.2593	0.2641
x1 = 0.8039	0.2072	–	–	–
x1 = 0.8449	–	0.209	0.2285	0.2216
x1 = 0.845	0.18	–	–	–
x1 = 0.9004	–	0.152	0.156	0.147
x1 = 0.9005	0.127	–	–	–
x1 = 0.9484	0.0676	0.0887	0.0944	0.0844
